Assay results as given in paper PMC3542538 (Journal of medicinal chemistry, 2012).
Entries after “also recorded” stand apart in the source; their conditions may differ. Where a name gives a salt, the structure may show the parent alone.

Legend:
recombinant Tdp1 = recombinant Tdp1 (Homo sapiens, UniProt Q9NUW8); assay type: biochemical
[1] = system: all human cancer cell lines successfully tested; assay: cells; settings: read-out: MGM (mean graph midpoint GI50)
[2] = system: single-stranded DNA substrate; assay: Surface plasmon resonance binding to single-stranded DNA substrate; settings: SPR
recombinant human Top1 = target: T1, recombinant human Top1 (Homo sapiens, UniProt P11387); assay: Topoisomerase I-mediated DNA cleavage reactions; assay type: biochemical; settings: 100 μM
T1 sequence (P11387 1-765): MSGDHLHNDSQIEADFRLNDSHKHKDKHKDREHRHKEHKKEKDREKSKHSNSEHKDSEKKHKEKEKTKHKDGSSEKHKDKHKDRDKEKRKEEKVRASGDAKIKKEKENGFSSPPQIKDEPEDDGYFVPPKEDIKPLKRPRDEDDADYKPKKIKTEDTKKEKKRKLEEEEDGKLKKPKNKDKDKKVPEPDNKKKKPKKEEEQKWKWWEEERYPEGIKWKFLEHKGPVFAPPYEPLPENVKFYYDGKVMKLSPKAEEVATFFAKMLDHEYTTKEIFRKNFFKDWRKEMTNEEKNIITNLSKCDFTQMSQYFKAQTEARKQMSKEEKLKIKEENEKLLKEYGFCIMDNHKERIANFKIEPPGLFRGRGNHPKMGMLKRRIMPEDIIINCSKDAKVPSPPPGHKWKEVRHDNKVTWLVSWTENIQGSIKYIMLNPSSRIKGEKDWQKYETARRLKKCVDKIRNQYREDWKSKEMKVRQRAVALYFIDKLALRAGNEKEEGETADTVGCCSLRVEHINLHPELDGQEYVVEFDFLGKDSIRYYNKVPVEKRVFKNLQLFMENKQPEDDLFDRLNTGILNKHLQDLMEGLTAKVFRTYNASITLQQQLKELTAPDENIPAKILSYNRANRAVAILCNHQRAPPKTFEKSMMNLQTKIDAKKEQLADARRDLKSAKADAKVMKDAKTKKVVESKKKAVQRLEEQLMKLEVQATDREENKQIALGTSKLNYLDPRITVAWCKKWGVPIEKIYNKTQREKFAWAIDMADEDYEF

recombinant Tdp1, sequence (Q9NUW8 whole entry): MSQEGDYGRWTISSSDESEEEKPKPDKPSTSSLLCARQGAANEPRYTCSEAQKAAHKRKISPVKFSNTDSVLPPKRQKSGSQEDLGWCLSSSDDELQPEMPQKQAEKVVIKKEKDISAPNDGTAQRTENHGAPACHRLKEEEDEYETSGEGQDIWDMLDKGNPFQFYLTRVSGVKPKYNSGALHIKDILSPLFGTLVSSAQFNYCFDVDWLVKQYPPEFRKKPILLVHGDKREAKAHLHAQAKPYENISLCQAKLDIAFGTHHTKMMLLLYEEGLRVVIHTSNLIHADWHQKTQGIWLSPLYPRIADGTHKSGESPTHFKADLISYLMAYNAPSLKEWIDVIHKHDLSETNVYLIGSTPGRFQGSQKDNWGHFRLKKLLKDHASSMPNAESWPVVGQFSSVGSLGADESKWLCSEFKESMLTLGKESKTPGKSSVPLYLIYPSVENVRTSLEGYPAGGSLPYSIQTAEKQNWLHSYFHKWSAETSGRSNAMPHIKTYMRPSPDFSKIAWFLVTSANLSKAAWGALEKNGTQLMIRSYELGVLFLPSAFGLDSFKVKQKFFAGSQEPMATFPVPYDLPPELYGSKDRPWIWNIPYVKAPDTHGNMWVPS

SMILES	Tdp1 inhibitory activity (in words) (recombinant Tdp1)	GI50 [1]	also measured
CC(C)(C)OC(=O)NCCCn1c2c(c3ccc(NCC(=O)O)cc3c1=O)C(=O)c1ccccc1-2 [Compound 42, 2-((6-(3-((tert-Butoxycarbonyl)amino)propyl)-5,11-dioxo-6,11-dihydro-5H-indeno[1,2-c]isoquinolin-3-yl)amino)acetic Acid]	inactivity	–	–
COC(=O)C(=O)Nc1ccc2c3c(n(CCCN)c(=O)c2c1)-c1ccccc1C3=O [Compound 22, Methyl 2-[(6-(3-Aminopropyl)-5,11-dioxo-6,11-dihydro-5H-indeno[1,2-c]isoquinolin-3-yl)amino]-2-oxoacetate]	–	1860 ± 380 nM	–
Cn1c2c(c3ccc(NC(=O)CC(=O)O)cc3c1=O)C(=O)c1ccccc1-2 [Compound 15, 3-[(6-Methyl-5,11-dioxo-6,11-dihydro-5H-indeno[1,2-c]isoquinolin-3-yl)amino]-3-oxopropanoic Acid]	inactive	–	–
COC(=O)CC(=O)Nc1ccc2c3c(n(CCCN)c(=O)c2c1)-c1ccccc1C3=O [Compound 23, Methyl 3-[(6-(3-Aminopropyl)-5,11-dioxo-6,11-dihydro-5H-indeno[1,2-c]isoquinolin-3-yl)amino]-3-oxopropanoate]	–	1860 nM	–
CC(C)(C)OC(=O)NCCCn1c2c(c3ccc(NC(=O)CCCC(=O)O)cc3c1=O)C(=O)c1ccccc1-2 [Compound 30, 5-[(6-(3-((tert-Butoxycarbonyl)amino)propyl)-5,11-dioxo-6,11-dihydro-5H-indeno[1,2-c]isoquinolin-3-yl)amino]-5-oxopentanoic Acid]	inactive	–	–
CC(C)(C)OC(=O)NCCCn1c2c(c3ccc(NC(=O)CCC(=O)O)cc3c1=O)C(=O)c1ccccc1-2 [Compound 29, 4-[(6-(3-((tert-Butoxycarbonyl)amino)propyl)-5,11-dioxo-6,11-dihydro-5H-indeno[1,2-c]isoquinolin-3-yl)amino]-4-oxobutanoic Acid]	weakly active	–	–
CC(C)(C)OC(=O)NCCCn1c2c(c3ccc(NC(=O)CCCCC(=O)O)cc3c1=O)C(=O)c1ccccc1-2 [Compound 31, 6-[(6-(3-((tert-Butoxycarbonyl)amino)propyl)-5,11-dioxo-6,11-dihydro-5H-indeno[1,2-c]isoquinolin-3-yl)amino]-6-oxohexanoic Acid]	weakly active	–	–
O=C1c2ccccc2-c2c1c1ccc([N+](=O)[O-])cc1c(=O)n2CCCO [Compound 63]	–	890 ± 220 nM	–
COc1ccc2c(c1)C(=O)c1c-2n(CCCN)c(=O)c2cc([N+](=O)[O-])ccc12 [Compound 54]	–	20 ± 0.8 nM	–
Cn1c2c(c3ccc(NC(=O)C(=O)O)cc3c1=O)C(=O)c1ccccc1-2 [Compound 14]	–	–	binding to the single-stranded DNA substrate [2]: did not bind
COc1ccc2c(c1)-c1c(c3ccc([N+](=O)[O-])cc3c(=O)n1CCCn1ccnc1)C2=O [Compound 52, 6-(3-(1H-Imidazol-1-yl)propyl)-8-methoxy-3-nitro-5H-indeno[1,2-c]isoquinoline-5,11(6H)-dione]	very weak or inactive	20 ± 0.6 nM	suppression of Top1-mediated DNA cleavage at high drug concentration (recombinant human Top1): slight suppression; also recorded: does not
COc1ccc2c(c1)C(=O)c1c-2n(CCCN(C)C)c(=O)c2cc(I)ccc12 [Compound 85, 3-Iodo-9-methoxy-6-(3-(Dimethylamino)propyl)-5H-indeno[1,2-c]isoquinoline-5,11(6H)-dione]	–	–	suppression of Top1-mediated DNA cleavage at high drug concentration (recombinant human Top1): complete suppression; also recorded: suppress
COC(=O)C(=O)Nc1ccc2c3c(n(C)c(=O)c2c1)-c1ccccc1C3=O [Compound 9, Methyl 2-[(6-Methyl-5,11-dioxo-6,11-dihydro-5H-indeno[1,2-c]isoquinolin-3-yl)amino]-2-oxoacetate]	inactive	–	–

The next lines start with results.

Tdp1 inhibitory activity (in words) (recombinant Tdp1)	GI50 [1]	SMILES	also measured
inactivity; also recorded: inactive	–	Cn1c2c(c3ccc(NCC(=O)O)cc3c1=O)C(=O)c1ccccc1-2 [Compound 41, 2-[(6-Methyl-5,11-dioxo-6,11-dihydro-5H-indeno[1,2-c]isoquinolin-3-yl)amino]acetic Acid]	–
–	250 ± 4 nM	COc1ccc2c(c1)C(=O)c1c-2n(CCCN)c(=O)c2cc(I)ccc12 [Compound 84, 6-(3-Aminopropyl)-5,6-dihydro-9-methoxy-3-iodo-5,11-dioxo-11H-indeno[1,2-c]isoquinoline]	–
–	300 ± 14 nM	CN(C)CCCn1c2c(c3ccc(C#N)cc3c1=O)C(=O)c1ccccc1-2 [Compound 74]	–
inactivity; also recorded: inactive	–	CCOC(=O)CNc1ccc2c3c(n(C)c(=O)c2c1)-c1ccccc1C3=O [Compound 38, Ethyl 2-[(6-Methyl-5,11-dioxo-6,11-dihydro-5H-indeno[1,2-c]isoquinolin-3-yl)amino]acetate]	–
–	1090 nM	COC(=O)CCCC(=O)Nc1ccc2c3c(n(CCCN)c(=O)c2c1)-c1ccccc1C3=O [Compound 25, Methyl 5-[(6-(3-Aminopropyl)-5,11-dioxo-6,11-dihydro-5H-indeno[1,2-c]isoquinolin-3-yl)amino]-5-oxopentanoate]	–
–	870 ± 14 nM	NCCCn1c2c(c3ccc(NCC(=O)O)cc3c1=O)C(=O)c1ccccc1-2 [Compound 43, 2-((6-(3-Aminopropyl)-5,11-dioxo-6,11-dihydro-5H-indeno[1,2-c]isoquinolin-3-yl)amino)acetic Acid Hydrochloride]	–
very weak or inactive	–	COc1ccc2c(c1)-c1c(c3ccc([N+](=O)[O-])cc3c(=O)n1CCCN1CCOCC1)C2=O [Compound 53, 8-Methoxy-6-(3-morpholinopropyl)-3-nitro-5H-indeno[1,2-c]isoquinoline-5,11(6H)-dione]	–
–	40 nM	COc1ccc2c(c1)C(=O)c1c-2n(CCCN)c(=O)c2cc(N)ccc12 [Compound 89, 3-Amino-6-(3-aminopropyl)-5,6-dihydro-9-methoxy-5,11-dioxo-11H-indeno[1,2-c]isoquinoline Dihydrochloride]	–
very weak or inactive	–	COc1ccc2c(c1)-c1c(c3ccc([N+](=O)[O-])cc3c(=O)n1CCCBr)C2=O [Compound 49, 6-(3-Bromopropyl)-5,6-dihydro-8-methoxy-3-nitro-5,11-dioxo-11H-indeno[1,2-c]isoquinoline]	–
–	170 ± 17 nM	COc1ccc2c(c1)-c1c(c3ccc([N+](=O)[O-])cc3c(=O)n1CCCN)C2=O [Compound 51, 6-(3-Aminopropyl)-5,6-dihydro-8-methoxy-3-nitro-5,11-dioxo-11H-indeno[1,2-c]isoquinoline Hydrochloride]	–
active	–	CCOC(=O)CNc1ccc2c3c(n(CCCN)c(=O)c2c1)-c1ccccc1C3=O.Cl [Compound 40, Ethyl 2-[(6-(3-Aminopropyl)-5,11-dioxo-6,11-dihydro-5H-indeno[1,2-c]isoquinolin-3-yl)amino]acetate Hydrochloride]	–
very weak or inactive	–	COc1ccc2c(c1)-c1c(c3ccc([N+](=O)[O-])cc3c(=O)n1CCCN=[N+]=[N-])C2=O [Compound 50, 6-(3-Azidopropyl)-5,6-dihydro-8-methoxy-3-nitro-5,11-dioxo-11H-indeno[1,2-c]isoquinoline]	–
–	160 nM	NCCCn1c2c(c3ccc(N)cc3c1=O)C(=O)c1ccccc1-2 [Compound 62]	–
